# Results taken from article PMC9055851 (RSC Advances, 2020).
# Molecular target: Aβ42 peptide (Homo sapiens, UniProt P05067)
# Assay: ThT fluorescence assay for inhibition of Aβ42 fibrillation
# Type: biochemical
# Sequence of Aβ42 peptide (P05067 672-713): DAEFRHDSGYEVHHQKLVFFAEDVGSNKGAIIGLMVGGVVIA
structure (smiles),measurement,setting,value
"O=[N+]([O-])c1ccc(/N=N/c2ccc3nc(-c4ccccc4)c(I)c(-c4ccccc4)c3c2)cc1 [Compound 1d, (E)-3-Iodo-6-((4-nitrophenyl)diazenyl)-2,4-diphenylquinoline]",% inhibition for Aβ aggregation,"Aβ42 25 μM, compounds 25 μM, PBS, 37 °C, 24 h",75.2 ± 3.0%
same,inhibition at 25 µM,"read-out: % inhibition for Aβ aggregation, Aβ42 25 μM, compounds 25 μM, PBS, 37 °C, 24 h",~75%
